Source: patent US20090264292A1, “HERBICIDAL COMPOSITION” (ISHIHARA SANGYO KAISHA, LTD., priority 2005, published 2009)

Tests used:
Type in all cases: in vivo
[1] = system: crabgrass (Digitaria sanguinalis L.); experiment: Test Example 1: pot test, foliar application, crabgrass; conditions: 3.6 leaf stage, 21st day after application, read-out: Crabgrass Growth inhibition rate (%) Observed
Procedure: (§1) Upland field soil was put into a 1/1,000,000 ha pot, and seeds of various plants were sown. Then, when the plants reached the prescribed leaf stages ((1) 3.6 leaf stage of crabgrass (Digitaria sanguinalis L.), and (2), 2.8 leaf stage of velvetleaf (Abutilon theophrasti MEDIC.)), a prescribed amount of the herbicidal composition was diluted with water corresponding to 300 L/ha, and foliar application was carried out by means of a small size spray. On the 21st day after the application, the state of growth of each plant was visually observed, and the growth inhibition rate (%) evaluated in accordance with the following evaluation standard (observed value) and the growth inhibition rate (%) calculated by the above-mentioned Colby method (expected value) are shown in Tables 1 and 2 .
(§2) Growth inhibition rate (%)=0% (equivalent to the non-treated area) to 100% (complete kill)

[2] = system: velvetleaf (Abutilon theophrasti MEDIC.); experiment: Test Example 1: pot test, foliar application, velvetleaf; conditions: 2.8 leaf stage, 21st day after application, read-out: Velvetleaf Growth inhibition rate (%) Observed
Procedure: as §1, §2

[3] = system: velvetleaf (Abutilon theophrasti MEDIC.); experiment: Test Example 2: pot test, foliar application, velvetleaf; conditions: 2.9 leaf stage, 21st day after application, read-out: Velvetleaf Growth inhibition rate (%) Observed
Procedure: as §2
(§3) Upland field soil was put into a 1/1,000,000 ha pot, and seeds of velvetleaf (Abutilon theophrasti MEDIC.) were sown. Then, when velvetleaf reached 2.9 leaf stage, a prescribed amount of the herbicidal composition was diluted with water corresponding to 300 L/ha, and foliar application was carried out by means of a small size spray.
On the 21st day after the application, the state of growth of velvetleaf was visually observed and evaluated in the same manner as in the above Test Example 1.

[4] = system: velvetleaf (Abutilon theophrasti MEDIC.); experiment: Test Example 3: pot test, foliar application, velvetleaf; conditions: 2.3 to 2.5 leaf stage, 14th day after application, read-out: Velvetleaf Growth inhibition rate (%) Observed
Procedure: as §2
as §3, with “2.3 to 2.5” for “2.9”
On the 14th day after the application, the state of growth of velvetleaf was visually observed and evaluated in the same manner as in the above Test Example 1.

Row | SMILES | inhibition at 25 g/ha ([1]; 25 g/ha) [%] | inhibition at 50 g/ha ([2]; 50 g/ha) [%] | inhibition at 25 g/ha ([3]; 25 g/ha) [%] | inhibition at 5 g/ha ([4]; 5 g/ha) [%] | inhibition at 10 g/ha ([4]; 10 g/ha) [%] | inhibition at 15 g/ha ([4]; 15 g/ha) [%] | inhibition at 250 g/ha ([1]; 250 g/ha) [%] | inhibition at 500 g/ha ([1]; 500 g/ha) [%] | inhibition at 250 g/ha ([2]; 250 g/ha) [%] | inhibition at 500 g/ha ([2]; 500 g/ha) [%] | inhibition at 500 g/ha ([3]; 500 g/ha) [%] | inhibition at 1000 g/ha ([4]; 1000 g/ha) [%] | inhibition at 1500 g/ha ([4]; 1500 g/ha) [%] | inhibition at 2000 g/ha ([4]; 2000 g/ha) [%]
1 | COc1cc(OC)nc(NC(=O)NS(=O)(=O)c2ncccc2C(=O)N(C)C)n1 [Compound A-1, 2-(4,6-dimethoxypyrimidin-2-ylcarbamoylsulfamoyl)-N,N-dimethylnicotinamide] | 53 | 60 | 38 | 5 | 8 | 12 | – | – | – | – | – | – | – | –
2 | CCNc1nc(Cl)nc(NC(C)(C)C)n1 [Compound B-1, N^2-tert-butyl-6-chloro-N^4-ethyl-1,3,5-triazine-2,4-diamine] | – | – | – | – | – | – | 5 | 8 | 57 | 58 | 47 | 37 | 43 | 43
